How the values were obtained:
PRMT5/MEP50 = molecular target: T1, PRMT5/MEP50 (Homo sapiens, UniProt O14744); assay: PRMT5/MEP50 enzyme assay on peptide substrates (3H-SAM Flashplate); type: biochemical; conditions: PRMT5/MEP50 10 nM, H4 1-15aa peptide 100 nM, 3H-SAM 1 μM
T1 construct: Full-length human PRMT5 (NP_006100)
Description: General materials like S-adenocylmethionine (SAM), S-adenosylhomocysteine (SAH), Tris-HCl, DTT, […] (BSA) and Tween-20 were purchased from Sigma-Aldrich. 3H-SAM and 384-well streptavidin Flashplates were purchased from Perkin Elmer. Substrates that were used were Peptide representative of human Histone 4 residues 1-15 which was purchased from Rockland antibodies and assays.
PRMT5/MEP50 Enzyme assay on Peptide Substrates.
The assays were all performed in a buffer consisting of 50 mMTris-HCl, pH 8, 1 mM DTT, 0.01% BSA, 0.01% Tween-20, prepared on the day of use. Test compounds were diluted 3-fold in assay buffer (final DMSO concentration of 1%) and added into a 384-well OptiPlate (PerkinElmer, #6007290). A cocktail (10 μL) of PRMT5/MEP50 enzyme and the peptide was added to the wells. The compounds were allowed to incubate with PRMT5/MEP50 for 30 min at room temperature, then 5 μL of ^3H-SAM was added to initiate the reaction. The final concentrations of the components were as follows: PRMT5/MEP50-10 nM, H4, 1-15aa peptide-100 nM, ^3H-SAM-1 μM. The assays were stopped by the addition of 1 mM SAH. 25 μL of the reaction from the 384-well OptiPlate was then transferred to a 384-well Flashplate and the biotinylated peptides were allowed to bind to the streptavidin surface for at least 1 h, before being washed twice with 50 mMTris-HCl, pH 8, 0.1% Tween-20. The plates were then read in a PerkinElmer Topcount plate reader to measure the quantity of ^3H-labeled peptide bound to the Flashplate surface measured as disintegrations per minute (dpm), also referred to as counts per minute (cpm).
The IC50 values were calculated using a 4-parameter variable slope fit algorithm (cpm—counts per minute, cmpd—signal in assay well, and cpmmax and cpmmin mare the respective minimum and maximum signal controls).

Z-138 cells = assay: Z-138 long term proliferation assay (Cell Titer Glo); type: cell-based; conditions: Homo sapiens, 192 h; Z-138 cells, cell viability, day 8; read-out: PRMT5 Z138 GI50 Day 8 μM
Description: A compound source plate was prepared by performing ten-point 3-fold dilution in DMSO, such that the final top concentration of the compound was 10 μM, and DMSO was 0.3%. The total volume of compounds added was 20 μL. The cells were incubated for 96 h at 37° C., 5% CO2. […] The cells were re-treated with the compounds and incubated for an additional four days. Cell viability was measured on both day 4 and day 8, by adding 25 μL of Cell Titer Glo reagent to an equal volume of cell suspension. Luminescence was read on a PerkinElmer Victor3 multiplate reader. The concentration of compound inhibiting cell viability by 50% was determined using a 4-parameter, variable slope fit of the normalized dose response curves.

T1 sequence (O14744 whole entry): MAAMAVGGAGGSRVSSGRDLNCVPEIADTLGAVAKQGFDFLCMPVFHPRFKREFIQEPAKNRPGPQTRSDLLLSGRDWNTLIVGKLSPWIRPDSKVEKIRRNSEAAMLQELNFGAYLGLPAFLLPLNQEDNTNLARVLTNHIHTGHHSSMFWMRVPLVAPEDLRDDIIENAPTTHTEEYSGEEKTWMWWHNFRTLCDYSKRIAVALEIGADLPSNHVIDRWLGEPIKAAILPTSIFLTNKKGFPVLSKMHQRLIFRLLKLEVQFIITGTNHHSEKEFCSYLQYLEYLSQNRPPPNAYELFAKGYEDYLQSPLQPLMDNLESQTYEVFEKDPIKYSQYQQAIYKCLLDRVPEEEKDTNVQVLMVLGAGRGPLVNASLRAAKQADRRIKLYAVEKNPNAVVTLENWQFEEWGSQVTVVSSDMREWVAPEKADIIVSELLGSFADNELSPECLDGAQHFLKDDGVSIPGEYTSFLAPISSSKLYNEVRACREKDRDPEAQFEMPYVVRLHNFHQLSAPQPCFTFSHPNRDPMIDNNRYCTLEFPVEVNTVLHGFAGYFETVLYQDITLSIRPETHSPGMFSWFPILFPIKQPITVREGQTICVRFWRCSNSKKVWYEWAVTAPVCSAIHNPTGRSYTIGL
T1 sequence (Q9BQA1 whole entry partner): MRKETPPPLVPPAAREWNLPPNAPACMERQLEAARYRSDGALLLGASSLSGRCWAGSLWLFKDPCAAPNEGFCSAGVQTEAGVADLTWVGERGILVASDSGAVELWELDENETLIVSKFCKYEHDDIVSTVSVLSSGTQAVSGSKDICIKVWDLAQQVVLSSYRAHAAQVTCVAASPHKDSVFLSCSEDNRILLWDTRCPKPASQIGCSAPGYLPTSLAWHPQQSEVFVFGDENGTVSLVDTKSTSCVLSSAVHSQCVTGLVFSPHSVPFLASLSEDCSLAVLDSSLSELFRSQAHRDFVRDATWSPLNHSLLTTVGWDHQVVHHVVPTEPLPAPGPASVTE

Row | Structure (SMILES) | IC50 (PRMT5/MEP50) [nM] | GI50 (Z-138 cells) [nM]
1 | O=C(NC[C@H](O)CN1CCc2ccccc2C1)c1cn2cc(N3CC(F)(F)C3)ncc2n1 [Example 58, (S)-6-(3,3-difluoroazetidin-1-yl)-N-(3-(3,4-dihydroisoquinolin-2(1H)-yl)-2-hydroxypropyl)imidazo[1,2-a]pyrazine-2-carboxamide] | 1000 to 5000 | 1000 to 5000
2 | O=C(NC[C@H](O)[C@@H](O)CN1CCc2ccccc2C1)c1cn2cc(-c3cnn([C@@H]4CCOC4)c3)ccc2n1 [Example 79, N-((2S,3S)-4-(3,4-dihydroisoquinolin-2(1H)-yl)-2,3-dihydroxybutyl)-6-(1-((R)-tetrahydrofuran-3-yl)-1H-pyrazol-4-yl)imidazo[1,2-a]pyridine-2-carboxamide] | 10 to 1000 | 10 to 1000
3 | Cn1cc([C@H]2CCc3nc(C(=O)NC[C@H](O)CN4CCc5ccccc5C4)cn3C2)cn1 [Example 120A, (R)—N—((S)-3-(3,4-dihydroisoquinolin-2(1H)-yl)-2-hydroxypropyl)-6-(1-methyl-1H-pyrazol-4-yl)-5,6,7,8-tetrahydroimidazo[1,2-a]pyridine-2-carboxamide] | 10 to 1000 | 10 to 1000
4 | Cc1c(C(=O)NC[C@H](O)CN2CCc3ccccc3C2)nc2cnc(-c3ccn(C)c(=O)c3)cn12 [Example 65, (S)—N-(3-(3,4-dihydroisoquinolin-2(1H)-yl)-2-hydroxypropyl)-3-methyl-6-(1-methyl-2-oxo-1,2-dihydropyridin-4-yl)imidazo[1,2-a]pyrazine-2-carboxamide] | 10 to 1000 | 10 to 1000
5 | Cc1cn2cc(C(=O)NC[C@H](O)CN3CCc4ccccc4C3)nc2cn1 [Example 57] | 1000 to 5000 | 1000 to 5000
6 | O=C(NC[C@H](O)CN1CCc2ccccc2C1)c1cn2cc(-c3cnn(C4COC4)c3)ccc2n1 [Example 22, (S)—N-(3-(3,4-dihydroisoquinolin-2(1H)-yl)-2-hydroxypropyl)-6-(1-(oxetan-3-yl)-1H-pyrazol-4-yl)imidazo[1,2-a]pyridine-2-carboxamide] | 10 to 1000 | 10 to 1000
7 | Cn1cc(-c2ccc3nc(C(=O)NC[C@H](O)[C@@H](O)CN4CCc5ccccc5C4)cn3c2)cn1 [Example 81, N-((2S,3S)-4-(3,4-dihydroisoquinolin-2(1H)-yl)-2,3-dihydroxybutyl)-6-(1-methyl-1H-pyrazol-4-yl)imidazo[1,2-a]pyridine-2-carboxamide] | 10 to 1000 | 10 to 1000
8 | CC(C)n1cc(-c2ccc3nc(C(=O)NC[C@H](O)CN4CCc5ccccc5C4)cn3c2)nn1 [Example 37, (S)—N-(3-(3,4-dihydroisoquinolin-2(1H)-yl)-2-hydroxypropyl)-6-(1-isopropyl-1H-1,2,3-triazol-4-yl)imidazo[1,2-a]pyridine-2-carboxamide] | 10 to 1000 | 10 to 1000
9 | Cc1nc(-c2ccc3nc(C(=O)NC[C@H](O)[C@@H](O)CN4CCc5ccccc5C4)cn3c2)no1 [Example 78, N-((2S,3S)-4-(3,4-dihydroisoquinolin-2(1H)-yl)-2,3-dihydroxybutyl)-6-(5-methyl-1,2,4-oxadiazol-3-yl)imidazo[1,2-a]pyridine-2-carboxamide] | 10 to 1000 | 10 to 1000
10 | NS(=O)(=O)c1ccc2nc(C(=O)NC[C@H](O)CN3CCc4ccccc4C3)cn2c1 [Example 40, (S)—N-(3-(3,4-dihydroisoquinolin-2(1H)-yl)-2-hydroxypropyl)-6-sulfamoylimidazo[1,2-a]pyridine-2-carboxamide] | 1000 to 5000 | > 5000
11 | Cn1ccc(-c2ccc3nc(C(=O)NC[C@H](O)[C@@H](O)CN4CCc5ccccc5C4)cn3c2)cc1=O [Example 80, N-((2S,3S)-4-(3,4-dihydroisoquinolin-2(1H)-yl)-2,3-dihydroxybutyl)-6-(1-methyl-2-oxo-1,2-dihydropyridin-4-yl)imidazo[1,2-a]pyridine-2-carboxamide] | 10 to 1000 | 10 to 1000
12 | Cc1ccn2nc(C(=O)NC[C@H](O)CN3CCc4ccccc4C3)c(F)c2n1 [Example 67] | 1000 to 5000 | > 5000
13 | Cc1c(C(=O)NC[C@H](O)CN2CCc3ccccc3C2)nc2cnc(-c3ccc(=O)n(C)c3)cn12 [Example 66, (S)—N-(3-(3,4-dihydroisoquinolin-2(1H)-yl)-2-hydroxypropyl)-3-methyl-6-(1-methyl-6-oxo-1,6-dihydropyridin-3-yl)imidazo[1,2-a]pyrazine-2-carboxamide] | 10 to 1000 | 10 to 1000
14 | CNC(=O)c1ccc2nc(C(=O)NC[C@H](O)CN3CCc4ccccc4C3)cn2c1 [Example 38, (S)—N2-(3-(3,4-dihydroisoquinolin-2(1H)-yl)-2-hydroxypropyl)-N6-methylimidazo[1,2-a]pyridine-2,6-dicarboxamide] | 10 to 1000 | 10 to 1000
15 | O=C(NC[C@H](O)CN1CCc2cc(F)ccc2C1)c1cn2nc(C(F)(F)F)ccc2n1 [Example 83, (S)—N-(3-(6-fluoro-3,4-dihydroisoquinolin-2(1H)-yl)-2-hydroxypropyl)-6-(trifluoromethyl)imidazo[1,2-b]pyridazine-2-carboxamide] | > 5000 | > 5000

Now from value to compound, other results behind:

Row | IC50 (PRMT5/MEP50) [nM] | Structure (SMILES) | GI50 (Z-138 cells) [nM]
16 | 10 to 1000 | Cn1ccc(-c2ccc3nc(C(=O)NC[C@H](O)CN4CCc5ccccc5C4)cn3c2)cc1=O [Example 35, (S)—N-(3-(3,4-dihydroisoquinolin-2(1H)-yl)-2-hydroxypropyl)-6-(1-methyl-2-oxo-1,2-dihydropyridin-4-yl)imidazo[1,2-a]pyridine-2-carboxamide] | 10 to 1000
17 | 10 to 1000 | Cn1ccc(-c2ccn3nc(C(=O)NC[C@H](O)CN4CCc5ccccc5C4)cc3n2)cc1=O [Example 63, (S)—N-(3-(3,4-dihydroisoquinolin-2(1H)-yl)-2-hydroxypropyl)-5-(1-methyl-2-oxo-1,2-dihydropyridin-4-yl)pyrazolo[1,5-a]pyrimidine-2-carboxamide] | 1000 to 5000
18 | 1000 to 5000 | Cc1ccc2nc(C(=O)NC[C@H](O)CN3CCc4ccccc4C3)cn2n1 [Example 56, (S)—N-(3-(3,4-dihydroisoquinolin-2(1H)-yl)-2-hydroxypropyl)-6-methylimidazo[1,2-b]pyridazine-2-carboxamide] | > 5000
19 | 10 to 1000 | Cc1ccc(-c2ccc3nc(C(=O)NC[C@H](O)CN4CCc5ccccc5C4)cn3c2)nn1 [Example 30, (S)—N-(3-(3,4-dihydroisoquinolin-2(1H)-yl)-2-hydroxypropyl)-6-(6-methylpyridazin-3-yl)imidazo[1,2-a]pyridine-2-carboxamide] | 10 to 1000
20 | 10 to 1000 | O=C(NC[C@H](O)CN1CCc2ccccc2C1)c1cn2cc(N3CCOCC3)ccc2n1 [Example 72, (S)—N-(3-(3,4-dihydroisoquinolin-2(1H)-yl)-2-hydroxypropyl)-6-morpholinoimidazo[1,2-a]pyridine-2-carboxamide] | 1000 to 5000
21 | 10 to 1000 | Cn1cc([C@@H]2CCc3nc(C(=O)NC[C@H](O)CN4CCc5ccccc5C4)cn3C2)cn1 [Example 120B, (S)—N—((S)-3-(3,4-dihydroisoquinolin-2(1H)-yl)-2-hydroxypropyl)-6-(1-methyl-1H-pyrazol-4-yl)-5,6,7,8-tetrahydroimidazo[1,2-a]pyridine-2-carboxamide] | 1000 to 5000
22 | 10 to 1000 | N#Cc1ccc2nc(C(=O)NC[C@H](O)CN3CCc4ccccc4C3)cn2c1 [Example 123, (S)-6-cyano-N-(3-(3,4-dihydroisoquinolin-2(1H)-yl)-2-hydroxypropyl)imidazo[1,2-a]pyridine-2-carboxamide] | 10 to 1000
23 | 10 to 1000 | CN(C[C@H](O)CN1CCc2ccccc2C1)C(=O)c1cn2cc(-c3cnn(C)c3)ncc2n1 [Example 92, (R)—N-(3-(3,4-dihydroisoquinolin-2(1H)-yl)-2-hydroxypropyl)-N-methyl-6-(1-methyl-1H-pyrazol-4-yl)imidazo[1,2-a]pyrazine-2-carboxamide] | 1000 to 5000
24 | 10 to 1000 | Cn1ccc(-c2cnc3nc(C(=O)NC[C@H](O)CN4CCc5ccccc5C4)cn3c2)cc1=O [Example 44, (S)—N-(3-(3,4-dihydroisoquinolin-2(1H)-yl)-2-hydroxypropyl)-6-(1-methyl-2-oxo-1,2-dihydropyridin-4-yl)imidazo[1,2-a]pyrimidine-2-carboxamide] | 10 to 1000

— patent US11459338B2, “Heterocyclic compounds as PRMT5 inhibitors” (JUBILANT EPISCRIBE LLC, priority 2018, dated 2022)
